Results reported in patent US10653744B2, “Formulations and methods for treating ulcerative colitis” (priority 2016, dated 2020).
Positions of bridges follow the written chain, without caps; N, C: chain ends. Non-standard residues stand in square brackets, D forms with d. No end group written: not given here.

Tests used:
[1] = tested on: TNBS-induced acute colitis; settings: oral treatment, murine model; cited from earlier work
[2] = tested on: patients with mild to moderate ulcerative colitis; assay: Double-blind, placebo-controlled, four-week study of rectal dolcanatide in ulcerative colitis patients; format: in vivo, human; settings: for improvement of ulcerative colitis symptoms compared with placebo-treated patients: 6 mg dissolved in saline, intra-rectally every evening for 28 days, 28 patients
Method: A double-blind, placebo-controlled, four-week study evaluating 28 patients with mild-to-moderate ulcerative colitis was conducted. Patients received 6 mg Dolcanatide dissolved in saline administered intra-rectally each evening for 28 days.
A double-blind, placebo-controlled, four week study was performed evaluating 28 patients with mild to moderate ulcerative colitis. Subjects were treated with either saline (placebo) or Dolcanatide (SP-333; SEQ ID NO: 9). Six mg of Dolcanatide was dissolved in saline and administered intra-rectally every evening for 28 days.

[3] = tested on: DSS-induced acute colitis; settings: oral treatment, murine model; cited from earlier work

dAsn^1-Asp^2-Glu^3-Cys^4-Glu^5-Leu^6-Cys^7-Val^8-Asn^9-Val^10-Ala^11-Cys^12-Thr^13-Gly^14-Cys^15-dLeu^16 ([dN]DECELCVNVACTGC[dL]; disulfide 4-12, 7-15; ends not checked) [Dolcanatide]
effect on TNBS-induced acute colitis [1]: ameliorate
improvement of ulcerative colitis symptoms compared with placebo-treated patients [2]: Improved Ulcerative Colitis Symptoms
improvement of ulcerative colitis symptoms compared with placebo-treated patients ([2]; listed as dolcanatide): clear signals of improvement
safety and tolerability ([2]; 6 mg intra-rectally each evening for 28 days): safe and well tolerated
remission from ulcerative colitis symptoms ([2]; after 28 days of treatment, 6 mg intra-rectally every evening): in remission from their ulcerative colitis symptoms
effect on DSS-induced acute colitis [3]: ameliorate
